Patent US8815875B2 (Merck Sharp & Dohme Corp., priority 2008, dated 2014)

Target: FABP4 (Homo sapiens, UniProt P15090)
Assay: TdF (Temperature Dependence Fluorescence) assay, thermal shift, FABP4
Format: binding
Method in brief: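 Binding measured as ΔTm versus protein alone; binding constants derived by nonlinear fitting with ΔHL set to −7 kcal/mol and ΔCpL to zero.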

FABP4, sequence (P15090 whole entry, species assumed): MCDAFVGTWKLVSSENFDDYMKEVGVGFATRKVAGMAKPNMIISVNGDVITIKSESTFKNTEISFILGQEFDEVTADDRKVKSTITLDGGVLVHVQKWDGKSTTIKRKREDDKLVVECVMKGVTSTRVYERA

Row | FABP4 TdF Kd | Kd [nM] | SMILES
1 | B (0.5 ≦ B < 0.001 μM) |  | COCC1(CNC(=O)c2ccccc2OCc2[nH]c3nc(-c4ccccc4)nn3c(=O)c2Cl)CC1 [24-17]
2 |  | ≤ 1 | COc1ccccc1C1(CNC(=O)c2ccccc2OCc2[nH]c3nc(-c4ccccc4)nn3c(=O)c2Cl)CC1 [24-18]
3 | B (0.5 ≦ B < 0.001 μM) |  | Cc1c(Cl)cccc1OCc1cc(=O)n2nc(-c3ccccn3)nc2[nH]1 [25-3]
4 | B (0.5 ≦ B < 0.001 μM) |  | Cc1c(Cl)cccc1OCc1cc(=O)n2nc(-c3ccsc3)nc2[nH]1 [25-4]
5 |  | > 500 | Cc1c(Cl)cccc1OCc1cc(=O)n2nc(-c3cnccn3)nc2[nH]1 [25-5]
6 |  | > 500 | Cc1c(Cl)cccc1OCc1cc(=O)n2nc(-c3cncnc3)nc2[nH]1 [25-6]
7 |  | > 500 | Cc1c(Cl)cccc1OCc1cc(=O)n2nc(-c3ccccc3Cl)nc2[nH]1 [25-7]
8 |  | > 500 | Cc1c(Cl)cccc1OCc1cc(=O)n2nc(-c3ccccc3F)nc2[nH]1 [25-8]
9 | B (0.5 ≦ B < 0.001 μM) |  | O=c1c(Cl)c(COc2cccc(Cl)c2C2CCC2)[nH]c2nc(-c3ccccc3)nn12 [26-4]
10 |  | > 500 | Cc1c(Cl)cccc1OCc1cc(=O)n2nc(-c3ccccc3)nc2n1C [28-1]
11 |  | > 500 | O=c1cc(CN2CCc3c(C4CC4)cccc32)[nH]c2nc(-c3ccccc3)nn12 [29-1]
12 | B (0.5 ≦ B < 0.001 μM) |  | O=c1cc(COc2cccc(Cl)c2CO)[nH]c2nc(-c3ccccc3)nn12 [30-2]
13 | B (0.5 ≦ B < 0.001 μM) |  | CC(=O)c1c(Cl)cccc1OCc1cc(=O)n2nc(-c3ccccc3)nc2[nH]1 [31-2]
14 |  | > 500 | CN(C)Cc1c(Cl)cccc1OCc1cc(=O)n2nc(-c3ccccc3)nc2[nH]1 [33-1]
15 |  | > 500 | O=c1cc(COc2cccc(Cl)c2CNCCN2CCOCC2)[nH]c2nc(-c3ccccc3)nn12 [33-2]
16 |  | > 500 | CN1CCN(CCNCc2c(Cl)cccc2OCc2cc(=O)n3nc(-c4ccccc4)nc3[nH]2)CC1 [33-3]
17 | B (0.5 ≦ B < 0.001 μM) |  | Cc1ccccc1C(C)Cc1cc(=O)n2nc(-c3ccccc3)nc2[nH]1 (centres unmarked) [35-5]
18 | B (0.5 ≦ B < 0.001 μM) |  | Cc1c(Cl)cccc1OCc1[nH]c2nc(-c3ccccc3)nn2c(=O)c1F [36-1]
19 | B (0.5 ≦ B < 0.001 μM) |  | Cc1c(Cl)cccc1OC(C)c1cc(=O)n2nc(-c3ccccc3)nc2[nH]1 (centres unmarked) [37-5]
20 | B (0.5 ≦ B < 0.001 μM) |  | CC1(C)CN(Cc2cc(=O)n3nc(-c4ccccc4)nc3[nH]2)c2cccc(Br)c21 [39-5]
21 | B (0.5 ≦ B < 0.001 μM) |  | CCCCC1(C)CN(Cc2cc(=O)n3nc(-c4ccccc4)nc3[nH]2)c2cccc(Cl)c21 (centres unmarked) [41-3]
22 | B (0.5 ≦ B < 0.001 μM) |  | C=CCc1c(Cl)cccc1OCc1cc(=O)n2nc(-c3ccccc3)nc2[nH]1 [42-3]
23 | B (0.5 ≦ B < 0.001 μM) |  | C=CCc1ccc(Cl)cc1OCc1cc(=O)n2nc(-c3ccccc3)nc2[nH]1 [42-4]
24 | B (0.5 ≦ B < 0.001 μM) |  | O=c1cc(COc2cccc(Cl)c2CC2CC2)[nH]c2nc(-c3ccccc3)nn12 [43-2]
25 | B (0.5 ≦ B < 0.001 μM) |  | O=c1cc(COc2cc(Cl)ccc2CC2CC2)[nH]c2nc(-c3ccccc3)nn12 [43-3]

Row | FABP4 TdF Kd | Kd [nM] | SMILES
26 | B (0.5 ≦ B < 0.001 μM) |  | N#Cc1cccc(OCc2cc(=O)n3nc(-c4ccccc4)nc3[nH]2)c1Cl [45-2]
27 | B (0.5 ≦ B < 0.001 μM) |  | N#Cc1cccc(OCc2cc(=O)n3nc(-c4ccccc4)nc3[nH]2)c1C1CC1 [46-2]
28 |  | > 500 | NCc1cccc(OCc2cc(=O)n3nc(-c4ccccc4)nc3[nH]2)c1C1CC1 [46-3]
29 | B (0.5 ≦ B < 0.001 μM) |  | O=C(O)c1c(Cl)cccc1OCc1cc(=O)n2nc(-c3ccccc3)nc2[nH]1 [47-1, 2-chloro-6-((7-oxo-2-phenyl-4,7-dihydro-[1,2,4]triazolo[1,5-a]pyrimidin-5-yl)methoxy)benzoic acid]
30 | B (0.5 ≦ B < 0.001 μM) |  | Cn1nccc1NC(=O)c1c(Cl)cccc1OCc1cc(=O)n2nc(-c3ccccc3)nc2[nH]1 [47-2, 2-chloro-N-(1-methyl-1H-pyrazol-5-yl)-6-((7-oxo-2-phenyl-4,7-dihydro-[1,2,4]triazolo[1,5-a]pyrimidin-5-yl)methoxy)benzamide]
31 | B (0.5 ≦ B < 0.001 μM) |  | O=C(NCC1CC1)c1c(Cl)cccc1OCc1cc(=O)n2nc(-c3ccccc3)nc2[nH]1 [47-3]
32 |  | ≤ 1 | O=C(NCC1(c2ccc(Cl)cc2)CC1)c1c(Cl)cccc1OCc1cc(=O)n2nc(-c3ccccc3)nc2[nH]1 [47-4, 2-chloro-N-((1-(4-chlorophenyl)cyclopropyl)methyl)-6-((7-oxo-2-phenyl-4,7-dihydro-[1,2,4]triazolo[1,5-a]pyrimidin-5-yl)methoxy)benzamide]
33 | B (0.5 ≦ B < 0.001 μM) |  | O=C(NCC1CCC1)c1c(Cl)cccc1OCc1cc(=O)n2nc(-c3ccccc3)nc2[nH]1 [47-5, 2-chloro-N-(cyclobutylmethyl)-6-((7-oxo-2-phenyl-4,7-dihydro-[1,2,4]triazolo[1,5-a]pyrimidin-5-yl)methoxy)benzamide]
34 |  | > 500 | O=C(c1c(Cl)cccc1OCc1cc(=O)n2nc(-c3ccccc3)nc2[nH]1)N1CCS(=O)(=O)CC1 [47-6, 4-[2-chloro-6-[(4,7-dihydro-7-oxo-2-phenyl[1,2,4]triazolo[1,5-a]pyrimidin-5-yl)methoxy]benzoyl]thiomorpholine, 1,1-dioxide]
35 | B (0.5 ≦ B < 0.001 μM) |  | Cc1cc(NC(=O)c2c(Cl)cccc2OCc2cc(=O)n3nc(-c4ccccc4)nc3[nH]2)n(C)n1 [47-7, 2-chloro-N-(1,3-dimethyl-1H-pyrazol-5-yl)-6-((7-oxo-2-phenyl-4,7-dihydro-[1,2,4]triazolo[1,5-a]pyrimidin-5-yl)methoxy)benzamide]
36 | B (0.5 ≦ B < 0.001 μM) |  | Cc1cc(NC(=O)c2c(Cl)cccc2OCc2cc(=O)n3nc(-c4ccccc4)nc3[nH]2)no1 [47-8, 2-chloro-N-(5-methylisoxazol-3-yl)-6-((7-oxo-2-phenyl-4,7-dihydro-[1,2,4]triazolo[1,5-a]pyrimidin-5-yl)methoxy)benzamide]
37 | B (0.5 ≦ B < 0.001 μM) |  | COC[C@@H]1CCCN1C(=O)c1c(Cl)cccc1OCc1cc(=O)n2nc(-c3ccccc3)nc2[nH]1 [47-9, (S)-5-((3-chloro-2-(2-(methoxymethyl)pyrrolidine-1-carbonyl)phenoxy)methyl)-2-phenyl-[1,2,4]triazolo[1,5-a]pyrimidin-7(4H)-one]
38 | B (0.5 ≦ B < 0.001 μM) |  | COC[C@H]1CCCN1C(=O)c1c(Cl)cccc1OCc1cc(=O)n2nc(-c3ccccc3)nc2[nH]1 [47-10]
39 | B (0.5 ≦ B < 0.001 μM) |  | Cn1nc(C2CC2)cc1NC(=O)c1c(Cl)cccc1OCc1cc(=O)n2nc(-c3ccccc3)nc2[nH]1 [47-11]
40 | B (0.5 ≦ B < 0.001 μM) |  | O=C(NC1(CO)CC1)c1c(Cl)cccc1OCc1cc(=O)n2nc(-c3ccccc3)nc2[nH]1 [47-12, 2-chloro-N-(1-(hydroxymethyl)cyclopropyl)-6-((7-oxo-2-phenyl-4,7-dihydro-[1,2,4]triazolo[1,5-a]pyrimidin-5-yl)methoxy)benzamide]
41 | B (0.5 ≦ B < 0.001 μM) |  | O=C(NCC1(O)CCCCC1)c1c(Cl)cccc1OCc1cc(=O)n2nc(-c3ccccc3)nc2[nH]1 [47-13, 2-chloro-N-((1-hydroxycyclohexyl)methyl)-6-((7-oxo-2-phenyl-4,7-dihydro-[1,2,4]triazolo[1,5-a]pyrimidin-5-yl)methoxy)benzamide]
42 | B (0.5 ≦ B < 0.001 μM) |  | O=C(NC1(CO)CCCCC1)c1c(Cl)cccc1OCc1cc(=O)n2nc(-c3ccccc3)nc2[nH]1 [47-14]
43 | B (0.5 ≦ B < 0.001 μM) |  | O=C(NCC1(O)CCCC1)c1c(Cl)cccc1OCc1cc(=O)n2nc(-c3ccccc3)nc2[nH]1 [47-15, 2-chloro-N-((1-hydroxycyclopentyl)methyl)-6-((7-oxo-2-phenyl-4,7-dihydro-[1,2,4]triazolo[1,5-a]pyrimidin-5-yl)methoxy)benzamide]
44 | B (0.5 ≦ B < 0.001 μM) |  | O=C(NC1(CO)CCCC1)c1c(Cl)cccc1OCc1cc(=O)n2nc(-c3ccccc3)nc2[nH]1 [47-17, 2-chloro-N-(1-(hydroxymethyl)cyclopentyl)-6-((7-oxo-2-phenyl-4,7-dihydro-[1,2,4]triazolo[1,5-a]pyrimidin-5-yl)methoxy)benzamide]
45 | B (0.5 ≦ B < 0.001 μM) |  | O=C(NCC1(CO)CC1)c1c(Cl)cccc1OCc1cc(=O)n2nc(-c3ccccc3)nc2[nH]1 [47-18, 2-chloro-N-((1-(hydroxymethyl)cyclopropyl)methyl)-6-((7-oxo-2-phenyl-4,7-dihydro-[1,2,4]triazolo[1,5-a]pyrimidin-5-yl)methoxy)benzamide]
46 | B (0.5 ≦ B < 0.001 μM) |  | COCC1(CNC(=O)c2c(Cl)cccc2OCc2cc(=O)n3nc(-c4ccccc4)nc3[nH]2)CC1 [47-19, 2-chloro-N-((1-(methoxymethyl)cyclopropyl)methyl)-6-((7-oxo-2-phenyl-4,7-dihydro-[1,2,4]triazolo[1,5-a]pyrimidin-5-yl)methoxy)benzamide]
47 | B (0.5 ≦ B < 0.001 μM) |  | O=C(NCC1(CO)CCCC1)c1c(Cl)cccc1OCc1cc(=O)n2nc(-c3ccccc3)nc2[nH]1 [47-20, 2-chloro-N-((1-(hydroxymethyl)cyclopentyl)methyl)-6-((7-oxo-2-phenyl-4,7-dihydro-[1,2,4]triazolo[1,5-a]pyrimidin-5-yl)methoxy)benzamide]
48 | B (0.5 ≦ B < 0.001 μM) |  | O=C(NC1(CO)CCOCC1)c1c(Cl)cccc1OCc1cc(=O)n2nc(-c3ccccc3)nc2[nH]1 [47-21, 2-chloro-N-(4-(hydroxymethyl)tetrahydro-2H-pyran-4-yl)-6-((7-oxo-2-phenyl-4,7-dihydro-[1,2,4]triazolo[1,5-a]pyrimidin-5-yl)methoxy)benzamide]
49 | B (0.5 ≦ B < 0.001 μM) |  | CC(C)(CNC(=O)c1c(Cl)cccc1OCc1cc(=O)n2nc(-c3ccccc3)nc2[nH]1)N1CCOCC1 [47-22, 2-chloro-N-(2-methyl-2-morpholinopropyl)-6-((7-oxo-2-phenyl-4,7-dihydro-[1,2,4]triazolo[1,5-a]pyrimidin-5-yl)methoxy)benzamide]
50 | B (0.5 ≦ B < 0.001 μM) |  | COc1ccccc1C1(CNC(=O)c2c(Cl)cccc2OCc2cc(=O)n3nc(-c4ccccc4)nc3[nH]2)CCC1 [47-23]
